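Test compounds were applied to cells in 96-well plates for 48 hours at 5 doses. Abbreviation: GI50, concentration required for 50% inhibition of growth. The concentration for full growth arrest is given as TGI.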
How the values were obtained:
Assay in all cases: growth of human tumour cells (NCI), 48 h
[1] = test system: SW-620 colon
[2] = test system: NCI-H226 lung
[3] = test system: OVCAR-5 ovarian
[4] = test system: SNB-75 CNS
[5] = test system: CCRF-CEM leukemia
[6] = test system: BT-549 breast
[7] = test system: HT29 colon
[8] = test system: HS 578T breast
[9] = test system: KM12 colon
[10] = test system: OVCAR-8 ovarian
[11] = test system: NCI-H23 lung
[12] = test system: MALME-3M melanoma
[13] = test system: MDA-MB-435
[14] = test system: TK-10 renal
[15] = test system: RXF 393 renal
[16] = test system: LOX IMVI melanoma
[17] = test system: CAKI-1 renal
[18] = test system: SF-295 CNS
[19] = test system: HOP-62 NSCLC
[20] = test system: HCT-15 colon
[21] = test system: A498 renal
[22] = test system: HCT-116 colon
[23] = test system: ACHN renal
[24] = test system: SR leukemia
[25] = test system: COLO 205 colon
[26] = test system: SNB-19 CNS
[27] = test system: RPMI-8226 leukemia
[28] = test system: HOP-92 NSCLC
[29] = test system: UACC-257 melanoma
[30] = test system: MOLT-4 leukemia
[31] = test system: SK-MEL-5 melanoma
[32] = test system: HCC-2998 colon
[33] = test system: OVCAR-3 ovarian
[34] = test system: UACC-62 melanoma
[35] = test system: T-47D breast
[36] = test system: SF-539 CNS
[37] = test system: M14 melanoma
[38] = test system: 786-0 renal
[39] = test system: K-562 leukemia
[40] = test system: OVCAR-4 ovarian
[41] = test system: SF-268 CNS
[42] = test system: SK-MEL-2 melanoma
[43] = test system: NCI-H522 lung
[44] = test system: PC-3 prostate
[45] = test system: UO-31 renal
[46] = test system: NCI/ADR-RES ovarian
[47] = test system: SK-MEL-28 melanoma
[48] = test system: U251 CNS
[49] = test system: NCI-H460 lung
[50] = test system: MDA-MB-231 breast
[51] = test system: SN12C renal
[52] = test system: EKVX NSCLC
[53] = test system: IGROV1 ovarian
[54] = test system: DU-145 prostate
[55] = test system: MCF7 breast
[56] = test system: SK-OV-3 ovarian
[57] = test system: HL-60(TB) leukemia
[58] = test system: A549 NSCLC

## c1ccc(Cn2cc3c(c2)-c2oncc2CC3)cc1
[1]
  GI50: 428 nM
  TGI: > 100000 nM
[2]
  GI50: 5910 nM
  TGI: 99100 nM
[3]
  GI50: 2300 nM
  TGI: > 92400 nM
[4]
  GI50: 1110 nM
  TGI: 27000 nM
[5]
  GI50: 348 nM
[6]
  GI50: 4310 nM
  TGI: 98200 nM
[7]
  GI50: 398 nM
  TGI: 13600 nM
[8]
  GI50: 887 nM
  TGI: 10700 nM
[9]
  GI50: 521 nM
  TGI: 9200 nM
[10]
  GI50: 2790 nM
  TGI: > 39100 nM
[11]
  GI50: 1770 nM
  TGI: > 100000 nM
[12]
  GI50: 17900 nM
  TGI: > 67800 nM
[13]
  GI50: 311 nM
  TGI: > 100000 nM
[14]
  GI50: 2980 nM
  TGI: > 71500 nM
[15]
  GI50: 1120 nM
  TGI: 4760 nM
[16]
  GI50: 1660 nM
  TGI: > 57900 nM
[17]
  GI50: 1970 nM
  TGI: > 76300 nM
[18]
  GI50: 818 nM
  TGI: > 20600 nM
[19]
  GI50: 1280 nM
  TGI: > 59400 nM
[20]
  GI50: 863 nM
  TGI: > 100000 nM
[21]
  GI50: 3430 nM
  TGI: > 92100 nM
[22]
  GI50: 408 nM
  TGI: > 100000 nM
[23]
  GI50: 7740 nM
  TGI: > 100000 nM
[24]
  GI50: 310 nM
  TGI: 4340 nM
[25]
  GI50: 467 nM
  TGI: 2550 nM
[26]
  GI50: 1270 nM
  TGI: > 100000 nM
[27]
  GI50: 285 nM
  TGI: 2380 nM
[28]
  GI50: 7640 nM
  TGI: > 91400 nM
[29]
  GI50: 22700 nM
  TGI: 98500 nM
[30]
  GI50: 394 nM
[31]
  GI50: 348 nM
  TGI: 11800 nM
[32]
  GI50: 1250 nM
  TGI: 4760 nM
[33]
  GI50: 457 nM
  TGI: 2210 nM
[34]
  GI50: 723 nM
  TGI: 97300 nM
[35]
  GI50: 2250 nM
  TGI: > 100000 nM
[36]
  GI50: 461 nM
  TGI: 2900 nM
[37]
  GI50: 528 nM
  TGI: > 100000 nM
[38]
  GI50: 1860 nM
  TGI: > 30800 nM
[39]
  GI50: 387 nM
  TGI: > 100000 nM
[40]
  GI50: 3260 nM
  TGI: > 66900 nM
[41]
  GI50: 1780 nM
  TGI: 38900 nM
[42]
  GI50: 5290 nM
  TGI: 87500 nM
[43]
  GI50: 1890 nM
  TGI: 8130 nM
[44]
  GI50: 1990 nM
  TGI: > 100000 nM
[45]
  GI50: 4230 nM
  TGI: 97100 nM
[46]
  GI50: 554 nM
  TGI: 7220 nM
[47]
  GI50: 4270 nM
  TGI: > 100000 nM
[48]
  GI50: 552 nM
  TGI: 33000 nM
[49]
  GI50: 402 nM
  TGI: 7500 nM
[50]
  GI50: 1360 nM
  TGI: 51900 nM
[51]
  GI50: 2260 nM
  TGI: > 100000 nM
[52]
  GI50: 2740 nM
  TGI: > 100000 nM
[53]
  GI50: 1270 nM
  TGI: > 100000 nM
[54]
  GI50: 977 nM
  TGI: 12800 nM
[55]
  GI50: 349 nM
  TGI: > 100000 nM
[56]
  GI50: 767 nM
  TGI: 26500 nM
[57]
  GI50: 274 nM
  TGI: 939 nM
[58]
  GI50: 1480 nM
  TGI: 97700 nM

Reference: PubChem BioAssay (NCI)
